Data from PMC7616174, “Development of Novel 4-Arylpyridin-2-one and 6-Arylpyrimidin-4-one Positive Allosteric Modulators of the M1 Muscarinic Acetylcholine Receptor” (ChemMedChem, 2020).
Read-outs that look alike come from different tables or passages of the source.

Assays:
hM1 mAChR = biological target: T1, hM1 mAChR (Homo sapiens, UniProt P11229); experiment: IP1 accumulation assay (ACh concentration-response curves in absence or presence of modulator); type: cell-based; details: for αβ (functional cooperativity with ACh) / τB (intrinsic efficacy of the modulator) / log τB (logarithm of intrinsic efficacy of the modulator) / log αβ (logarithm of functional cooperativity between ACh and modulator): IP1 accumulation; for αβ (functional cooperativity with ACh) / τB (intrinsic efficacy of the modulator): antilog, in parentheses; for log τB (logarithm of intrinsic efficacy of the modulator) / log αβ (logarithm of functional cooperativity between ACh and modulator): operational model; for log αβ (logarithm of functional cooperativity between ACh and modulator): pKB constrained to binding value; for activation at 1 µM: read-out: Δbaseline [1 μM]: change in basal response in presence of M1 PAM compared to control curve; for activation at 10 µM: read-out: Δbaseline [10 μM]: change in basal response in presence of M1 PAM compared to control curve
T1 construct: expressed in transfected cells
T1 sequence (P11229 1-460): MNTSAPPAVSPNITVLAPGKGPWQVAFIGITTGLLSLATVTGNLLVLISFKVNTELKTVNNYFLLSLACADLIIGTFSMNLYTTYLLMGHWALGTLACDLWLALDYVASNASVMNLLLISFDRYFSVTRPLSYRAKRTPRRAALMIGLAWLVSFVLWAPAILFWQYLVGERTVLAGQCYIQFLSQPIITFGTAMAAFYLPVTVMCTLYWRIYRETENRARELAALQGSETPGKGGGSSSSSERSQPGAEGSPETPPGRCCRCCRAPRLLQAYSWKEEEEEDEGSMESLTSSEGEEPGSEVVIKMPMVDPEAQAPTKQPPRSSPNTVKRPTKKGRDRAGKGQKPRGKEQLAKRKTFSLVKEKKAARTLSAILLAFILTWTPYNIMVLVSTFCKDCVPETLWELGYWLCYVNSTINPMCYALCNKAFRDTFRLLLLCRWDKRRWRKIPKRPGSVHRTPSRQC

M1 mAChR = biological target: T2, M1 mAChR (Homo sapiens, UniProt P11229); experiment: β-arrestin 2 recruitment assay (BRET); type: cell-based; details: for αβ (functional cooperativity with ACh) / τB (intrinsic efficacy of the modulator): antilog, in parentheses; for log τB (logarithm of intrinsic efficacy of the modulator) / log αβ (logarithm of functional cooperativity between ACh and modulator): operational model; for log αβ (logarithm of functional cooperativity between ACh and modulator): pKB constrained to binding value
T2 construct: expressed in transfected cells; host or cells: parental FlpIn CHO cells (transient, PEI)
T2 sequence (P11229 1-460): T1 sequence (P11229 1-460)
From the text: The compounds were then fully characterised in two functional assays (Figure 2C and D); the Gq-coupled IP1 accumulation assay (Figure S2), which was used for the initial screening of the compounds, and a β-arrestin 2 recruitment assay (Figure S3). The operational efficacy (τB) values for the modulators and their functional cooperativity estimates with ACh (logαβACh) at both signalling pathways were estimated by applying an operational model of allosterism and agonism to the data [Eq. (3)],[16] and are listed in Table 5.
Parental FlpIn CHO cells were plated at 30000 cells/well of 96-well white Culture plates (Perkin Elmer Life Sciences) and transiently transfected with 10 ng/well of M1 Renilla luciferase (Rluc)-8 and 40 ng/well of YFP-β-arrestin 2 using linear polyethyleneimine (PEI/DNA ratio 6:1) diluted in 150 mM NaCl. DNA:PEI complexes were formed by 15 min incubation at room temperature then added to the cells and incubated at 37°C for 24 h prior to use. Cells were then washed and equilibrated in Hanks’ balanced salt solution for 1 h at 37°C. Coelenterazine h at a final concentration of 5 μM was added to each well, followed by addition of increasing concentrations of ACh in the absence or presence of increasing concentrations of each modulator. Lumines-cence and fluorescence signals were measured 5 min after agonist stimulation using the LUMIstar Omega plate reader (BMG LabTech, Offenburg, Germany). […] Data were then normalized to the maximum response to ACh.
Functional interaction studies between ACh and allosteric modulators in IP1 and β-arrestin 2 recruitment assays were analysed according to a three-parameter logistic equation or the following operational model of allosterism and agonism [Eq. (3)].[16] E=Basal+(Em−Basal)([A](KB+αβ[B])+τB[B]EC50)^n/EC50n(KB+[B])^n+([A](KB+αβ[B])+τB[B]EC50)^n where Em is the maximal possible system response, and Basal is the response in the absence of agonist. [A] and [B] are concentrations of orthosteric and allosteric ligands, respectively. KB is the equilibrium dissociation constant of allosteric ligand, and EC50 is the concentration of orthosteric agonist required to achieve half maximal response. α and β represent the magnitude of the allosteric effects on orthosteric ligand affinity and efficacy, respectively; τB is the efficacy of allosteric ligand, and n is the slope factor of the transducer function that links occupancy to response.

[1] = In vivo brain and plasma exposure in mice after IP administration; details: for cbrain, total concentration, 90 min post-dose / cplasma, total concentration, 90 min post-dose / cplasma, total concentration, 20 or 45 min post-dose: range n=3; for cbrain, total concentration, 20 or 45 min post-dose / cplasma, total concentration, 20 or 45 min post-dose: 20 min (10 mg/kg) for 2, 7f, 13c, 45 min (20 mg/kg) for BQCA; for cbrain, total concentration, 20 or 45 min post-dose: range in individual mice n=3
Experimental: The study was performed using 10–12 weeks old male C57Bl/6 J naïve mice in accordance with the Australian Code of Practice for the Care and Use of Animals for Scientific Purposes, with procedures approved by the Animal Ethics Committee of the Monash Institute of Pharmaceutical Sciences.

[2] = 1 μM modulator, FlpIn CHO hM1 cells, mean ± SEM, 3 experiments
[3] = 10 μM modulator, FlpIn CHO hM1 cells, mean ± SEM, 3 experiments
[4] = 10 mg/kg (BQCA 20 mg/kg), range n=3, in parentheses
[5] = 20 min (10 mg/kg) for 2, 45 min (20 mg/kg) for BQCA, range n=3, in parentheses

ΔpEC50 [1 μM]: change in ACh pEC50 in presence of M1 PAM compared to control curve (hM1 mAChR; [2]) | ΔpEC50 [10 μM]: change in ACh pEC50 in presence of M1 PAM compared to control curve (hM1 mAChR; [3]) | αβ (functional cooperativity with ACh) (hM1 mAChR) | τB (intrinsic efficacy of the modulator) (hM1 mAChR) | log τB (logarithm of intrinsic efficacy of the modulator) (hM1 mAChR) | log αβ (logarithm of functional cooperativity between ACh and modulator) (hM1 mAChR) | αβ (functional cooperativity with ACh) (M1 mAChR) | τB (intrinsic efficacy of the modulator) (M1 mAChR) | log τB (logarithm of intrinsic efficacy of the modulator) (M1 mAChR) | log αβ (logarithm of functional cooperativity between ACh and modulator) (M1 mAChR) | cbrain, total concentration, 90 min post-dose ([1]; 10 mg/kg (BQCA 20 mg/kg)) | cplasma, total concentration, 90 min post-dose ([1]; 10 mg/kg (BQCA 20 mg/kg)) | cbrain, total concentration, 20 or 45 min post-dose [1] | cplasma, total concentration, 20 or 45 min post-dose [1] | activation at 1 µM (hM1 mAChR; [2]) | activation at 10 µM (hM1 mAChR; [3]) | SMILES | also measured
1.52±0.14 | 1.28±0.42 | 363 | 6 | 0.78±0.02 | 2.56±0.07 | 63 | 2 | 0.37±0.11 | 1.80±0.35 | 0.0 to 0.1 µM | 0.7 to 1.1 µM | 0.7 to 1.2 µM | 15.0 to 16.5 µM |  |  | Cn1cc(-c2ccc(COc3ccccc3-c3cc(=O)n(C4CCCCC4O)cn3)cc2)cn1 (stereo not drawn) [Compound 2, 3-(2-Hydroxycyclohexyl)-6-(2-((4-(1-methyl-1H-pyrazol-4-yl)benzyl)oxy)phenyl)pyrimidin-4(3H)-one] | activation at 1 µM (hM1 mAChR): 55.1 ± 2.4%; activation at 10 µM (hM1 mAChR): 85.3 ± 2.4%; cbrain, unbound concentration, 90 min post-dose [1, 4]: 0.0 µM; cplasma, unbound concentration, 90 min post-dose [1, 4]: 0.0 µM; cbrain, unbound concentration, 20 or 45 min post-dose [1, 5]: 0.0 µM; cplasma, unbound concentration, 20 or 45 min post-dose [1, 5]: 0.1 µM
0.76±0.07 | 1.41±0.10 | 316 | 4 | 0.56±0.05 | 2.50±0.08 | 81 | 2 | 0.23±0.08 | 1.91±0.10 |  | 11.1–13.7 (n.a.) μM | 0.3–0.4 (n.a.) μM | 31.8–40.7 (n.a.) μM | 4.8 ± 1.9% | 20.5 ± 2.5% | Cn1cc(-c2ccc(COc3ncccc3-c3ccn(C4CCCCC4O)c(=O)c3)cc2)cn1 (stereo not drawn) [Compound 7f, 1’-(2-Hydroxycyclohexyl)-2-((4-(1-methyl-1H-pyrazol-4-yl)benzyl)oxy)-[3,4’-bipyridin]-2’(1’H)-one] | 
0.73±0.08 | 1.33±0.17 | 118 | 3 | 0.45±0.03 | 2.07±0.08 | 55 | 1 | –0.01±0.06 | 1.74±0.11 | n.q. | 4.9–5.4 (n.a.) μM | n.q. | 25.3–46.5 (n.a.) μM | 2.1 ± 2.1% | 63.6 ± 2.3% | CN(C)C(=O)Cn1ccc(-c2ccccc2OCc2ccc(-c3cnn(C)c3)cc2)cc1=O [Compound 13c, N,N-Dimethyl-2-(4-(2-((4-(1-methyl-1H-pyrazol-4-yl)benzyl)oxy)phenyl)-2-oxopyridin-1(2H)-yl)acetamide] | 
